Results: patent US12202844B2, “MAP4K1 inhibitors” (Blueprint Medicines Corporation, priority 2021, dated 2025)
pIC50: −log10 of the molar value.

target: T1, MAP4K1 (HPK1) (Homo sapiens, UniProt Q92918); assay: Inhibition of MAP4K1 biochemical enzymatic activity (EZReader 2 electrophoretic mobility shift); conditions: HPK1 (Invitrogen), S6K2tide 1.5 μM, 120 min; ATP 26 μM or 1000 μM (not given)
T1 construct: purchased Invitrogen
From the text: MAP4K1 (HPK1) and relevant off-target enzymatic activity was monitored using the Perkin Elmer electrophoretic mobility shift technology platform—the EZReader 2. […] Within the linear, steady-state phase of the kinase enzymatic reaction, the mixed pool of phosphorylated (product) and non-phosphorylated (substrate) peptides was passed through the microfluidic system of the PerkinElmer EZ Reader 2, under an applied electric potential difference. The presence of the phosphate group on the product peptide provided a difference in mass and charge between that of the substrate peptide, resulting in a separation of the substrate and product pools in the sample (Perrin et al. 2010). As the product and substrate peptide mixture passes the lasers within the instrument, these pools are detected (λex=488 nm, λem=568 nm) and resolved as separate peaks. The ratio between these peaks reflects the activity of the compound at that concentration, in that well, under those conditions.
Inhibitors were dissolved in 100% DMSO at a stock concentration of 10 mM. A 100×, 10-point, 4-fold serial dilution of each inhibitor was created in 100% DMSO either manually or on a Hamilton STAR liquid handler, starting at a relevant concentration, usually 1 mM. A volume of 0.130 μL of each concentration was transferred to the relevant wells of a 384-well plate (Greiner 781 201) in duplicate using a TTPLabtech Mosquito nano-litre dispenser. Using a Multidrop Combi, the remaining constituents of the kinase reaction were added to the 130 nL of dosed compound as follows (see table below for final reaction details):
Enzyme activity assays at the ^APPKM for ATP or 1 mM ATP: In each well of a 384-well plate, 0.1-15 nM of untreated enzyme was incubated in a total of 13 μL of buffer (100 mM HEPES pH 7.5, 0.015% Brij 35, 10 mM MgCl2, 1 mM DTT) with 1.5 μM fluorescent peptid and 20-1000 μM ATP, at 25° C., for 60-180 minutes in the presence or absence of a dosed concentration series of compound (1% DMSO final concentration). The kinase reactions were stopped by the addition of 70 μl of Stop buffer (100 mM HEPES pH 7.5, 0.015% Brij 35, 35 mM EDTA and 0.2% of Coating Reagent 3 (Caliper Lifesciences)). The plates were read on a Caliper EZReader 2 as described above.

T1 sequence (Q92918 whole entry): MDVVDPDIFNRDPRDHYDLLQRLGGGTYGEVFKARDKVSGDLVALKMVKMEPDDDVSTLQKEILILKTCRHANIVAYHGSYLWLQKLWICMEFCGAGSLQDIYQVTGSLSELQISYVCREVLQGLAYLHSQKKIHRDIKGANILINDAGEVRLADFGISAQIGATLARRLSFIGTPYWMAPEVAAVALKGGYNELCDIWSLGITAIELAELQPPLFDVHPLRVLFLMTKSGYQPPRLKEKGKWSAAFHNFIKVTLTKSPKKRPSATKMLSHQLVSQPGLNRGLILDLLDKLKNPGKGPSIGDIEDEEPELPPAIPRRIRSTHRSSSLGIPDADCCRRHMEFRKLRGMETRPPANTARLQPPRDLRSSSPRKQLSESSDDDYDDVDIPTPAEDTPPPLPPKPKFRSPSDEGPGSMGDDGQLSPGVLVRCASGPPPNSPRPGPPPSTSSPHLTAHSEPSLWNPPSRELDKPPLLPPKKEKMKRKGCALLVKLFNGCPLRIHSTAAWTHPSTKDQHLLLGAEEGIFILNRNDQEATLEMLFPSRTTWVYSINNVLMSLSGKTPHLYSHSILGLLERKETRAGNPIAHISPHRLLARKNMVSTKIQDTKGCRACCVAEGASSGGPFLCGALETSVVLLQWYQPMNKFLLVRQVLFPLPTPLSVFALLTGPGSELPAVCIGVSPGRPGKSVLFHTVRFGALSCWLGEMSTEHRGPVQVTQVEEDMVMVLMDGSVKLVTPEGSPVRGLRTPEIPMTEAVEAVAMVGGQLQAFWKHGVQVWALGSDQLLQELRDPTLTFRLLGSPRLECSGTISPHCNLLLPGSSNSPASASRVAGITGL

Point of comparison: `COC[C@@](C)(N)c1cnc(O[C@H](C)C[C@@H](C)S(C)(=O)=O)c2cnc(Nc3ccc4c(n3)C3(CC3)C(C)(C)OC4=O)cc12` [Compound 164], pIC50 8.83. Against it:
- CC[C@@](C)(N)c1cnc(O[C@H](C)CC(C)(C)[S@@](C)(=N)=O)c2cnc(Nc3ccc4c(n3)C(C)(C)[C@@H](C)OC4=O)cc12 (single isomer, unassigned) [Compound 190] — 0.54 log units lower, 8.29
- C[C@H](C[C@H]1CCCS1(=O)=O)Oc1ncc(C(C)(C)N)c2cc(Nc3ccc4c(n3)[C@@H](C)C(C)(C)OC4=O)ncc12 (single isomer, unassigned) [Compound 158] — 0.24 log units higher, 9.07
- CC[C@@](C)(N)c1cnc(O[C@H]2C[C@@H](S(C)(=O)=O)C2)c2cnc(Nc3ccc4c(n3)C3(CC3)C(C)(C)OC4=O)cc12 [Compound 100] — 0.99 log units higher, 9.82
- C[C@H](C[C@@H](C)S(C)(=O)=O)Oc1ncc([C@@](C)(N)C2CC2)c2cc(Nc3ccc4c(n3)CC(C)(C)OC4=O)ncc12 (single isomer, unassigned) [Compound 108] — 0.83 log units higher, 9.66
- CC[C@@](C)(N)c1cnc(O[C@H]2C[C@@H](CS(C)(=O)=O)C2)c2cnc(Nc3ccc4c(n3)[C@@H](C)C(C)(C)OC4=O)cc12 [Compound 114] — 0.94 log units higher, 9.77
- CC[C@@](C)(N)c1cnc(O[C@H](C)C[C@@H](C)S(C)(=O)=O)c2cnc(Nc3ccc4c(n3)C(C)(C)[C@H](C)OC4=O)cc12 (single isomer, unassigned) [Compound 130] — 0.83 log units higher, 9.66
- CC[C@@](C)(N)c1cnc(OCCCS(C)(=O)=O)c2cnc(Nc3ccc4c(n3)CC(C)(C)OC4=O)cc12 [Compound 23] — 0.69 log units higher, 9.52
- CC[C@@](C)(N)c1cnc(O[C@H](C)CCS(C)(=O)=O)c2cnc(Nc3ccc4c(n3)CC(C)(C)OC4=O)cc12 [Compound 49] — 0.68 log units higher, 9.51
- C[C@@H]1c2nc(Nc3cc4c(C(C)(C)N)cnc(O[C@H](CCS(C)(=O)=O)C(F)(F)F)c4cn3)ccc2C(=O)OC1(C)C (single isomer, unassigned) [Compound 173] — 0.82 log units lower, 8.01
- C[C@@H]1[C@@H](Oc2ncc(C(C)(C)N)c3cc(Nc4ccc5c(n4)[C@@H](C)[C@H](C)OC5=O)ncc23)C[C@H]1S(C)(=O)=O (single isomer, unassigned) [Compound 30] — 0.27 log units higher, 9.10
- C[C@H](CCS(C)(=O)=O)Oc1ncc(C(C)(C)N)c2cc(Nc3ccc4c(n3)[C@@H](C)C(C)(C)OC4=O)ncc12 (single isomer, unassigned) [Compound 54] — 0.26 log units higher, 9.09
- C[C@H](C[C@H]1CCCS1(=O)=O)Oc1ncc(C(C)(C)N)c2cc(Nc3ccc4c(n3)[C@@H](C)C(C)(C)OC4=O)ncc12 (single isomer, unassigned) [Compound 160] — within 0.2 log units, 8.79
- C[C@@H]1OC(=O)c2ccc(Nc3cc4c(C(C)(C)N)cnc(O[C@H]5C[C@H](S(C)(=O)=O)C5)c4cn3)nc2[C@H]1C [Compound 14] — 0.72 log units higher, 9.55
- CC[C@@](C)(N)c1cnc(O[C@H](C)CC(C)(C)[S@@](C)(=N)=O)c2cnc(Nc3ccc4c(n3)C(C)(C)[C@@H](C)OC4=O)cc12 (single isomer, unassigned) [Compound 187] — within 0.2 log units, 8.66
- CCS(=O)(=O)C[C@H]1C[C@H](Oc2ncc(C(C)(C)N)c3cc(Nc4ccc5c(n4)[C@@H](C)C(C)(C)OC5=O)ncc23)C1 (single isomer, unassigned) [Compound 111] — 1.09 log units higher, 9.92
- C[C@@H]1OC(=O)c2ccc(Nc3cc4c(C(C)(C)N)cnc(O[C@H]5C[C@@H](S(=O)(=O)C6CC6)C5)c4cn3)nc2[C@H]1C [Compound 61] — 0.99 log units higher, 9.82
- CC[C@@](C)(N)c1cnc(O[C@H]2C[C@@H](S(C)(=O)=O)C2)c2cnc(Nc3ccc4c(n3)[C@H](C)COC4=O)cc12 (single isomer, unassigned) [Compound 9] — 0.21 log units higher, 9.04
- CC[C@@](C)(N)c1cnc(O[C@H](C)CC[S@@+](C)[O-])c2cnc(Nc3ccc4c(n3)[C@@H](C)[C@H](C)OC4=O)cc12 (single isomer, unassigned) [Compound 166] — 0.87 log units higher, 9.70
- CC(C)(N)c1cnc(O[C@H]2C[C@@H](S(C)(=O)=O)C2)c2cnc(Nc3ccc4c(n3)C3(CC3)C(C)(C)OC4=O)cc12 [Compound 59] — 0.99 log units higher, 9.82
- COC[C@@](C)(N)c1cnc(O[C@H]2C[C@@H](S(C)(=O)=O)C2)c2cnc(Nc3ccc4c(n3)C3(CC3)[C@H](C)OC4=O)cc12 (single isomer, unassigned) [Compound 163] — 0.83 log units higher, 9.66
- CCS(=O)(=O)C[C@H](C)[C@@H](C)Oc1ncc(C(C)(C)N)c2cc(Nc3ccc4c(n3)[C@@H](C)C(C)(C)OC4=O)ncc12 (single isomer, unassigned) [Compound 131] — within 0.2 log units, 8.71
- C[C@@H]1OC(=O)c2ccc(Nc3cc4c(C(C)(C)N)cnc(O[C@@H](CCS(C)(=O)=O)C(F)(F)F)c4cn3)nc2[C@H]1C (single isomer, unassigned) [Compound 174] — 0.56 log units lower, 8.27
- CC[C@@](C)(N)c1cnc(O[C@H]2C[C@H](CS(C)(=O)=O)C2)c2cnc(Nc3ccc4c(n3)[C@@H](C)C(C)(C)OC4=O)cc12 [Compound 113] — 1.02 log units higher, 9.85
- C[C@@H]1OC(=O)c2ccc(Nc3cc4c(C(C)(C)N)cnc(O[C@@H]5CC[C@@H](S(C)(=O)=O)C5)c4cn3)nc2[C@H]1C (single isomer, unassigned) [Compound 35] — 0.49 log units higher, 9.32
- C[C@H](C[C@@H](C)S(C)(=O)=O)Oc1ncc([C@@](C)(N)C2CC2)c2cc(Nc3ccc4c(n3)[C@@H](C)C(C)(C)OC4=O)ncc12 (single isomer, unassigned) [Compound 137] — 0.85 log units higher, 9.68
- C[C@H]1OC(=O)c2ccc(Nc3cc4c(C(C)(C)N)cnc(O[C@H]5C[C@@H](S(C)(=O)=O)C5)c4cn3)nc2C12CC2 (single isomer, unassigned) [Compound 24] — 0.99 log units higher, 9.82
- C[C@H](C[C@H]1CCCS1(=O)=O)Oc1ncc(C(C)(C)N)c2cc(Nc3ccc4c(n3)[C@@H](C)C(C)(C)OC4=O)ncc12 (single isomer, unassigned) [Compound 161] — 0.20 log units higher, 9.03
- C[C@@H]1c2nc(Nc3cc4c(C(C)(C)N)cnc(OCCC[S@@](C)(=N)=O)c4cn3)ccc2C(=O)OC1(C)C (single isomer, unassigned) [Compound 169] — 0.39 log units higher, 9.22
- C[C@@H]1OC(=O)c2ccc(Nc3cc4c(C(C)(C)N)cnc(O[C@H](CCS(C)(=O)=O)C(F)(F)F)c4cn3)nc2[C@H]1C (single isomer, unassigned) [Compound 175] — 1.20 log units lower, 7.63
- CC[C@@](C)(N)c1cnc(O[C@H](C)C[C@@H](C)[S@@](C)(=N)=O)c2cnc(Nc3ccc4c(n3)C3(CC3)[C@@H](C)OC4=O)cc12 (single isomer, unassigned) [Compound 180] — 0.31 log units lower, 8.52
- CC[C@@](C)(N)c1cnc(OCCCS(C)(=O)=O)c2cnc(Nc3ccc4c(n3)C3(CC3)[C@H](C)OC4=O)cc12 (single isomer, unassigned) [Compound 43] — 1.09 log units higher, 9.92
- C[C@@H]1OC(=O)c2ccc(Nc3cc4c(C(C)(C)N)cnc(OC5CS(=O)(=O)C5)c4cn3)nc2[C@H]1C [Compound 1] — 0.76 log units higher, 9.59
- CC[C@@](C)(N)c1cnc(O[C@@H](C)CCS(C)(=O)=O)c2cnc(Nc3ccc4c(n3)C3(CC3)C(C)(C)OC4=O)cc12 [Compound 146] — within 0.2 log units, 8.85
- COC[C@@](C)(N)c1cnc(O[C@H](C)C[C@@H](C)S(C)(=O)=O)c2cnc(Nc3ccc4c(n3)[C@@H](C)[C@H](C)OC4=O)cc12 [Compound 134] — 0.49 log units higher, 9.32
- C[C@@H]1[C@H](S(C)(=O)=O)C[C@H]1Oc1ncc(C(C)(C)N)c2cc(Nc3ccc4c(n3)[C@@H](C)C(C)(C)OC4=O)ncc12 (single isomer, unassigned) [Compound 71] — 0.72 log units higher, 9.55
- C[C@@H]1[C@@H](Oc2ncc(C(C)(C)N)c3cc(Nc4ccc5c(n4)[C@@H](C)[C@H](C)OC5=O)ncc23)C[C@H]1S(C)(=O)=O (single isomer, unassigned) [Compound 31] — 0.87 log units higher, 9.70
- C[C@@H]1OC(=O)c2ccc(Nc3cc4c(C(C)(C)N)cnc(O[C@@H]5CC[C@H](S(C)(=O)=O)C5)c4cn3)nc2[C@H]1C (single isomer, unassigned) [Compound 40] — 0.24 log units higher, 9.07
- CC[C@@](C)(N)c1cnc(O[C@@H](C)CCS(C)(=O)=O)c2cnc(Nc3ccc4c(n3)C(C)(C)[C@@H](C)OC4=O)cc12 [Compound 177] — within 0.2 log units, 8.96
- CCC[C@@](C)(N)c1cnc(O[C@H](C)C[C@@H](C)S(C)(=O)=O)c2cnc(Nc3ccc4c(n3)[C@@H](C)C(C)(C)OC4=O)cc12 (single isomer, unassigned) [Compound 142] — 0.87 log units higher, 9.70
- CC[C@@](C)(N)c1cnc(OCCCS(C)(=O)=O)c2cnc(Nc3ccc4c(n3)[C@@H](C)[C@H](C)OC4=O)cc12 [Compound 20] — 1.06 log units higher, 9.89
- CC(C)(N)c1cnc(O[C@H]2C[C@@H](S(C)(=O)=O)C2)c2cnc(Nc3ccc4c(n3)C(C)(C)OC4=O)cc12 [Compound 4] — within 0.2 log units, 8.73
